# In article PMC3547328 (Chemical communications (Cambridge, England), 2013):
# Tests used:
# [1] = Fluorescence lifetime measurements; type: physicochemical; conditions: free and peptide incorporated forms
# [2] = Absorption and fluorescence; type: physicochemical
# [3] = Collisional quenching experiments on NAAzAP with free amino acids and imidazole; type: physicochemical
# [4] = Fluorescence spectra of NAAzAP in different solvents; type: physicochemical; conditions: upon lowering solvent polarity, λex 342 nm
# [5] = typical range; depends on solvent exposure and quenching; cited from earlier work
# CaM = conditions: cited from earlier work
molecule,measurement,setting,value
"N[C@@H](Cc1ccc2cccccc1-2)C(=O)O [AzAla, β-(1-Azulenyl)-L-Alanine]",fluorescence decay,[1],simple monoexponential fluorescence decay
same,extinction coefficient,[2]; S2-S0 transition,~ 4200 cm^−1M^−1
same,quantum yield,[2]; relative to tryptophan,comparable to those of tryptophan
same,apparent emission intensity,"[2]; relative to tryptophan, narrower profile of the azulene emission",nearly the same apparent emission intensity
"CCCNC(=O)C(Cc1ccc2cccccc1-2)NC(C)=O (centres unmarked) [NAAzAP, N-Acetyl-(AzulylAlanine)-propylamide]",fluorescence quenching,[3]; quencher: free methionine,quenched
same,fluorescence quenching,[3]; quencher: imidazole,quenched
same,fluorescence quenching,"[3]; quencher: tryptophan, same conditions",not by tyrosine or tryptophan
same,fluorescence quenching,"[3]; quencher: tyrosine, same conditions",not by tyrosine or tryptophan
same,red shift of fluorescence spectra,[4],6 nm
N[C@@H](Cc1c[nH]c2ccccc12)C(=O)O [Tryptophan],apparent Trp quantum yield (Φ),[5],0.35 to 0.01
Melittin: Melittin has strong affinity for CaM,affinity for CaM,CaM,strong affinity for CaM
